Laboratory results reported in patent publication US5869501A, “Amidinonaphthyl derivative or salt thereof” (Yamanouchi Pharmaceutical Co. Ltd, priority 1994, dated 1999).
pIC50: −log10 of the molar value. Where a name gives a salt, the structure may show the parent alone. Read-outs that look alike come from different tables or passages of the source.

What was measured:
Format in all cases: biochemical
bovine thrombin = target: T1, bovine thrombin (Bos taurus, UniProt P00735); assay: Measurement of coagulation time by bovine thrombin (human fibrinogen); settings: pH=7.40, read-out: CT2 (dose which extends the blood coagulation time twice), bovine thrombin
T1 construct: clotting of human fibrinogen
Protocol: 2) Test on the measurement of coagulation time by bovine thrombin.
Human fibrinogen (freeze-dried preparation, manufactured by Sigma) is dissolved in 0.05M Tris-HCl buffer (pH=7.40) to prepare a 6 mg/ml solution. Bovine thrombin (500 IU/vial, manufactured by Mochida Pharmaceutical) is dissolved in physiological saline to prepare thrombin solutions of various concentrations. A 100 μl portion of the aforementioned fibrinogen solution was mixed with 100 μl of physiological saline, the mixture was incubated at 37° C. for 3 minutes. Then, 100 μl of the aforementioned thrombin solution was added to measure the coagulation time and to determine concentration of thrombin which causes coagulation after about 20 seconds. Next, 100 μl of each drug which has been diluted with physiological saline was added to 100 μl of the aforementioned fibrinogen solution to measure the coagulation time. KC4A manufactured by Amelung was used for the measurement of the coagulation time. A dose which extends the blood coagulation time twice (to be referred to as CT2 hereinafter) was calculated based on the blood coagulation time when 100 μl of physiological saline was added.

[1] = target: T2, human activated blood coagulation factor X (Homo sapiens, UniProt P00742); assay: Measurement of blood coagulation time by human activated blood coagulation factor X (human plasma); settings: read-out: CT2 (dose which extends the blood coagulation time twice), human activated blood coagulation factor X
T2 construct: purchased Cosmo Bio
Protocol: 1) Test on the measurement of blood coagulation time by human activated blood coagulation factor X.
Human activated blood coagulation factor X (manufactured by Cosmo Bio) is dissolved in 0.05M Tris-HCl buffer (pH=7.40) to prepare a 0.05 unit/ml solution. A blood sample collected using 1/10 volume of 3.8% sodium citrate was centrifuged at 3,000 rpm for 10 minutes. Then, 90 μl portion of the thus separated human plasma was mixed with 10 μl of each drug which has been diluted by dissolving in physiological saline and 50 μl of the aforementioned activated blood coagulation factor X solution, and the mixture was incubated at 37° C. for 3 minutes. Then, 100 μl of 20 mM CaCl2 solution was added to measure the blood coagulation time. KC4A manufactured by Amelung was used for the measurement of blood coagulation time. A dose which extends the blood coagulation time twice (to be referred to as CT2 hereinafter) was calculated based on the blood coagulation time when 10 μl of physiological saline was added instead of the drug.

[2] = target: T2, human activated blood coagulation factor X; assay: Measurement of enzyme inhibition by a synthetic substrate method (S-2222); settings: 37° C., 15 minutes, absorbance at 405 nm
Protocol: 3) Test on the measurement of enzyme inhibition by a synthetic substrate method.
Human activated blood coagulation factor X (manufactured by Cosmo Bio) was dissolved in 0.02M Tris-HCl buffer (pH=7.40) containing 0.15M sodium chloride to prepare a 6 units/ml solution. A synthetic substrate S-2222 (manufactured by Daiichi Kagaku Yakuhin) was dissolved in purified water to prepare a 0.75 mg/ml solution. A 25 μl portion of each drug which has been prepared by dissolving the drug in physiological saline was mixed with 170 μl of 0.05M Tris-HCl buffer (pH=8.40) and 50 μl of the S-2222 solution. Then, 10 μl of the human activated blood coagulation factor X solution was added and the mixture was incubated at 37° C. for 15 minutes. The reaction was stopped by adding 50 μl of 60% acetic acid and then the absorbance at 405 nm was measured to calculate IC50 value. Model 3550 manufactured by Bio-Rad was used for the measurement. A reaction mixture prepared by adding physiological saline instead of the drug and adding 60% acetic acid prior to the addition of the human activated blood coagulation factor X solution was used as a control. Concentration of the drug when 50% of the reaction was inhibited (to be referred to as IC50 hereinafter) was calculated based on the control.

[3] = human plasma, 37° C., 3 minutes incubation

T2 sequence (P00742 235-488 limits assumed): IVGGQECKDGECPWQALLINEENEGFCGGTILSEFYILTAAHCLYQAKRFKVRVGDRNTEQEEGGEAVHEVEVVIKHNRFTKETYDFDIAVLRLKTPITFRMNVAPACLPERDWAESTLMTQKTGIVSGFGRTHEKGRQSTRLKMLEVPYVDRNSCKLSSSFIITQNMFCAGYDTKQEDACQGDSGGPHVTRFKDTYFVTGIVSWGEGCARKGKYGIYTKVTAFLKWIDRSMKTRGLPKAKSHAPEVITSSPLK
T2 sequence (P00742 41-179 partner limits assumed): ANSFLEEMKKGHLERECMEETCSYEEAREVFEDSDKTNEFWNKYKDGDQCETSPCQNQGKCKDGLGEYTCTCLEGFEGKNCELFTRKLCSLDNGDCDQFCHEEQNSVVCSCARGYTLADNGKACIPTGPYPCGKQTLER

| Compound | IC (2-fold clotting time) (bovine thrombin) [µM] | IC (2-fold clotting time) [1] [µM] | pIC50 [2] | IC (2-fold clotting time) [1, 3] [µM] |
| --- | --- | --- | --- | --- |
| CCOC(=O)CNS(=O)(=O)N(Cc1ccc2ccc(C(=N)N)cc2c1)c1ccc(OC2CCN(C(C)=N)CC2)cc1 [Example 88, Ethyl N-[N-[4-[(1-acetoimidoyl-4-piperidyl)oxy]phenyl]-N-[(7-amidino-2-naphthyl)methyl]sulfamoyl]glycinate dihydrochloride] | > 100 | 0.04 | 7.33 | – |
| CCOC(=O)C(=O)N(Cc1ccc2ccc(C(=N)N)cc2c1)c1ccc(OC2CCN(C(C)=N)CC2)cc1 [Example 23, ethyl N-[4-[(1-acetoimidoyl-4-piperidyl)oxy]phenyl]-N-[(7-amidino-2-naphthyl)methyl]oxamate dihydrochloride] | > 100 | – | – | 0.11 |
| CC(=N)N1CCC(Oc2ccc(NCc3ccc4ccc(C(=N)N)cc4c3)cc2)CC1 [Example 31, 7-[[4-[(1-Acetoimidoyl-4-piperidyl)oxy]anilino]methyl]-2-naphthamidine trihydrochloride] | > 100 | – | – | 0.09 |
| CNS(=O)(=O)N(Cc1ccc2ccc(C(=N)N)cc2c1)c1ccc(OC2CCN(C(C)=N)CC2)cc1 [Example 79, N-[4-[(1-Acetoimidoyl-4-piperidyl)oxy]phenyl]-N-[(7-amidino-2-naphthyl)methyl]-N'-methylsulfamide dihydrochloride] | > 100 | 0.05 | 7.04 | – |
| CCOC(=O)N(CC(=O)O)S(=O)(=O)N(Cc1ccc2ccc(C(=N)N)cc2c1)c1ccc(OC2CCN(C(C)=N)CC2)cc1 [Example 86, N-[N-[4-[(1-Acetoimidoyl-4-piperidyl)oxy]phenyl]-N-[(7-amidino-2-naphthyl)methyl]sulfamoyl]-N-ethoxycarbonylglycine dihydrochloride] | > 100 | – | – | 0.04 |
| CCS(=O)(=O)N(Cc1ccc2ccc(C(=N)N)cc2c1)c1ccc(OC2CCN(C(C)=N)CC2)cc1 [Example 28, N-[4-[(1-Acetoimidoyl-4-piperidyl)oxy]phenyl]-N-[(7-amidino-2-naphthyl)methyl]ethanesulfonamide dihydrochloride] | > 100 | – | – | 0.05 |
| COc1ccccc1C(=O)N(Cc1ccc2ccc(C(=N)N)cc2c1)c1ccc(OC2CCN(C(C)=N)CC2)cc1 [Example 33, N-[4-[(1-Acetoimidoyl-4-piperidyl)oxy]phenyl]-N-[(7-amidino-2-naphthyl)methyl]-2-methoxybenzamide dihydrochloride] | > 100 | – | – | 0.14 |
| CCOC(=O)NS(=O)(=O)N(Cc1ccc2ccc(C(=N)N)cc2c1)c1ccc(OC2CCN(C(C)=N)CC2)cc1 [Example 63, Ethyl N-[N-[4-[(1-acetoimidoyl-4-piperidyl)oxy]phenyl]-N-[7-amidino-2-naphthyl)methyl]sulfamoyl]carbamate dihydrochloride] | > 100 | – | – | 0.04 |
| CC(=N)N1CCC(Oc2ccc(N(Cc3ccc4ccc(C(=N)N)cc4c3)S(=O)(=O)c3ccc(C(=O)O)cc3)cc2)CC1 [Example 74, 4-[N-[4-[(1-Acetoimidoyl-4-piperidyl)oxy]phenyl]-N-[(7-amidino-2-naphthyl)methyl]sulfamoyl]benzoic acid dihydrochloride] | > 100 | – | – | 0.09 |
| CC(=N)N1CCC(Oc2ccc(N(Cc3ccc4ccc(C(=N)N)cc4c3)C(=O)c3c(F)cccc3F)cc2)CC1 [Example 47, N-[4-[(1-Acetoimidoyl-4-piperidyl)oxy]phenyl]-N-[(7-amidino-2-naphthyl)methyl]-2,6-difluorobenzamide dihydrochloride] | > 100 | – | – | 0.13 |
